Where “and” joins values, the source holds several entries; their conditions need not be identical. Equal entries are not always repeated. Where two headings read alike, the source gives them in different places.
Key:
H3K9me2 = experiment: Cellular immunostaining (In-Cell Western), H3K9Me2 antibody immunofluorescence in PC3 cells; assay type: cell-based, human; conditions: for H3K9me2 % inhibition, single well of triplicate / inhibition at 0.03 µM / inhibition at 0.1 µM / inhibition at 0.3 µM / inhibition at 1 µM / inhibition at 3 µM: 72 hours; for inhibition at 0.03 µM / inhibition at 0.1 µM / inhibition at 0.3 µM / inhibition at 1 µM / inhibition at 3 µM: Homo sapiens, PC-3, 72 h
Procedure: For comparison, the known G9a inhibitor UNC0638 (see structure in FIG. 1) was evaluated in this study concurrently.
Human PC3 cells (ATCC, Manassas, Va.) were grown in RPMI+10% Fetal Bovine Serum and plated at 5,000 cells per well in a 96-well plate. The following day compounds and DMSO controls were added in triplicate at the indicated concentrations. Cells were fixed following incubation at 37° C. for 72 hours with 10% formaldehyde and then permeabilized with 0.1% Triton X-100. Cells were then washed with PBS and blocked with 0.1% BSA/PBS solution. Mouse anti-H3K9me2 (1:200, AbCam #1220, Cambridge, Mass.) and rabbit anti-Histone H3 (1:500, Cell Signaling Technology #4499, Danvers, Mass.) primary antibodies in 0.3% BSA were then added together to each well and incubated overnight at 4° C. The following day cells were washed in PBS-T (PBS with 0.1% Tween) followed by addition of anti-mouse (IR800) and anti-rabbit (IR700) secondary antibodies (LI-COR Biosciences, Lincoln, Nebr.) and incubated for one hour at room temperature. Cells were then washed with PBS-T followed by PBS and liquid was removed from all wells. The plate was scanned using both the 700 nm (anti-rabbit detection) and 800 nm (anti-mouse detection) channels on the Odyssey Imaging System (LI-COR Biosciences, Lincoln, Nebr.). Data was quantified using the LI-COR imaging suite and graphed as % inhibition H3K9me2/total H3/well compared to DMSO control wells. Wells treated in triplicate were averaged for each indicated concentration and error bars represent the standard deviation (n=3).

MV4;11 cells [1] = experiment: Differentiation, proliferation, viability and cell cycle of MV4;11 cells, 14 days; assay type: cell-based, human
Excerpt: MV4;11 cells are a human acute myelocytic leukemia (AML) cell line derived from a human with leukemia.

MV4;11 cells [2] = experiment: Combination of G9a inhibitor and ATRA on MV4;11 proliferation (CellTiter Glo); assay type: cell-based, human; conditions: 0, 300 nM or 3 μM Example 7 with 0-100 nM ATRA, 5 days
Procedure: Cellular proliferation was determined by CellTiter Glo assay.

[3] = system: human peripheral blood mononucleated cells (PBMCs); experiment: Viability of PBMCs (Caspase-Glo 3/7, CellTiter Glo); assay type: cell-based; conditions: 0-10 uM, 48 h
Procedure: Following treatment, Caspase 3/7 activity (i.e., a marker of apoptosis) was assessed by the Caspase-Glo 3/7 assay system (FIG. 7A), and cell viability was assessed by CellTiter Glo assay (FIG. 7B).

[4] = PK/PD study, plasma and tissue concentrations; assay type: in vivo, SCID/bg mice; conditions: 30 mg/kg/day osmotic mini-pump, samples at 2, 7, 14 days
Excerpt: Specifically, subcutaneous MV4;11 xenografts were implanted in SCID/bg mice and allowed to grow to 200 mm^3. […] In particular, by day 14, dimethylation of lysine 9 of histone H3 in the tumor tissue was reduced by 46 percent as compared to the vehicle.

[5] = system: HT1080 fibrosarcoma cells; experiment: Cell viability of HT1080 fibrosarcoma cells; assay type: cell-based; conditions: 48 h, 0-10,000 nM
[6] = Cytotoxicity, CellTiter Glo; assay type: cell-based; conditions: human, MHH-65-1 cells, 7-day proliferation, neural crest derived lines
[7] = Cytotoxicity, CellTiter Glo; assay type: cell-based; conditions: human, CAPO-ES1 cells, 7-day proliferation, neural crest derived lines
[8] = Cytotoxicity, CellTiter Glo; assay type: cell-based; conditions: human, SK-N-MC cells, 7-day proliferation, neural crest derived lines
[9] = Cytotoxicity, CellTiter Glo; assay type: cell-based; conditions: human, US2OS cells, 7-day proliferation, neural crest derived lines
[10] = Cytotoxicity, CellTiter Glo; assay type: cell-based; conditions: human, DaoY cells, 7-day proliferation, neural crest derived lines
[11] = Cytotoxicity, CellTiter Glo; assay type: cell-based; conditions: human, TC-71 cells, 7-day proliferation, neural crest derived lines
[12] = Cytotoxicity, CellTiter Glo; assay type: cell-based; conditions: human, IMR-32 cells, 12-day proliferation, neural crest derived lines
[13] = Cytotoxicity, CellTiter Glo; assay type: cell-based; conditions: A-201 cells, 12-day proliferation, neural crest derived lines
[14] = Cytotoxicity, CellTiter Glo; assay type: cell-based; conditions: human, THP-1 cells, 5-day proliferation
[15] = Cytotoxicity, CellTiter Glo; assay type: cell-based; conditions: human, RS4;11 cells, 5-day proliferation
[16] = Cytotoxicity, CellTiter Glo; assay type: cell-based; conditions: human, RPMI8226 cells, 5-day proliferation
[17] = Cytotoxicity, CellTiter Glo; assay type: cell-based; conditions: human, OPM2 cells, 5-day proliferation
[18] = Cytotoxicity, CellTiter Glo; assay type: cell-based; conditions: human, L-363 cells, 5-day proliferation
[19] = Cytotoxicity, CellTiter Glo; assay type: cell-based; conditions: human, KMS12 cells, 5-day proliferation
[20] = Cytotoxicity, CellTiter Glo; assay type: cell-based; conditions: human, KMS11 cells, 5-day proliferation
[21] = Cytotoxicity, CellTiter Glo; assay type: cell-based; conditions: human, H929 cells, 5-day proliferation
[22] = Cytotoxicity, CellTiter Glo; assay type: cell-based; conditions: human, K562 cells, 5-day proliferation
[23] = Cytotoxicity, CellTiter Glo; assay type: cell-based; conditions: human, Calu6 cells, 5-day proliferation
[24] = Cytotoxicity, CellTiter Glo; assay type: cell-based; conditions: human, LN229 cells, 5-day proliferation
[25] = Cytotoxicity, CellTiter Glo; assay type: cell-based; conditions: human, LNCap cells, 5-day proliferation
[26] = Cytotoxicity, CellTiter Glo; assay type: cell-based; conditions: human, SKBR3 cells, 5-day proliferation

SMILES: COc1cc2c(cc1OCCCN1CCCC1)N=C(N)C21CCC1 [Example 7, 5′-methoxy-6′-(3-(pyrrolidin-1-yl)propoxy)spiro[cyclobutane-1,3′-indol]-2′-amine]
- reduction of cellular levels of H3K9Me2 (H3K9me2; 3 μM): ~50%
- H3K9me2 % inhibition, single well of triplicate (H3K9me2; 0.03 uM): 15.08% and 10.18%
- H3K9me2 % inhibition, single well of triplicate (H3K9me2; 0.1 uM): 24.63% and 27.83%
- H3K9me2 % inhibition, single well of triplicate (H3K9me2; 0.3 uM): 34.47% and 40.35%
- H3K9me2 % inhibition, single well of triplicate (H3K9me2; 1 uM): 43.83% and 45.11%
- H3K9me2 % inhibition, single well of triplicate (H3K9me2; 3 uM): 47.77% and 48.92%
- inhibition at 0.03 µM (H3K9me2; 0.03 uM, n=3, read-out: H3K9me2 % inhibition, average): 12%
- inhibition at 0.03 µM (H3K9me2; 0.03 uM, read-out: H3K9me2 % inhibition, single well of triplicate): 10.8%
- inhibition at 0.1 µM (H3K9me2; 0.1 uM, n=3, read-out: H3K9me2 % inhibition, average): 24.3%
- inhibition at 0.1 µM (H3K9me2; 0.1 uM, read-out: H3K9me2 % inhibition, single well of triplicate): 20.6%
- inhibition at 0.3 µM (H3K9me2; 0.3 uM, n=3, read-out: H3K9me2 % inhibition, average): 37.1%
- inhibition at 0.3 µM (H3K9me2; 0.3 uM, read-out: H3K9me2 % inhibition, single well of triplicate): 36.6%
- inhibition at 1 µM (H3K9me2; 1 uM, n=3, read-out: H3K9me2 % inhibition, average): 44.4%
- inhibition at 1 µM (H3K9me2; 1 uM, read-out: H3K9me2 % inhibition, single well of triplicate): 44.2%
- inhibition at 3 µM (H3K9me2; 3 uM, n=3, read-out: H3K9me2 % inhibition, average): 47.5%
- inhibition at 3 µM (H3K9me2; 3 uM, read-out: H3K9me2 % inhibition, single well of triplicate): 45.9%
- levels of total histone 3, H3K27Me3, H3K36Me2, H3K4me2, H3K4me3 and H3K9me3 (H3K9me2; similar conditions): unaltered
- cell viability as measured by total histone H3 (H3K9me2; versus no treatment): No difference in cell viability
- MV4;11 cells no longer proliferating (CellTiter Glo) (MV4;11 cells [1]; 3 μM): about 100%
- viability at 3 µM (MV4;11 cells [1]; Homo sapiens, MV4-11, 336 h, 3 μM, read-out: viable MV4;11 cells (trypan blue exclusion)): ~20%
- cell cycle analysis (PI staining) (MV4;11 cells [1]; MV4;11 cells, 0-3 μM): more cells were observed to be in the subG1/G0 phase
- expression of marker CD11b by flow cytometry (differentiation) (MV4;11 cells [1]; MV4;11 cells, 0-3 μM): more cells in the population expressed the marker CD11b
- cells positive for CD11b (MV4;11 cells [1]; MV4;11 cells, 3 μM): about 90%
- MV4;11 proliferation, combination with ATRA (MV4;11 cells [2]): additive effects on MV4;11 proliferation
- effect on PBMC viability (Caspase 3/7 activity and CellTiter Glo) [3]: no effect on cell viability
- accumulation in tumor tissue (as well as liver and muscle tissue) [4]: significant accumulation
- cytotoxicity compared with UNC0638 [5]: reduced cytotoxicity
- IC50 at 7 day [6]: > 10 µM
- IC50 at 7 day [7]: > 10 µM
- IC50 at 7 day [8]: 9.7 µM
- IC50 at 7 day [9]: > 10 µM
- IC50 at 7 day [10]: > 10 µM
- IC50 at 7 day [11]: > 10 µM
- IC50 at 12 day [12]: > 10 µM
- IC50 at 12 day [13]: > 10 µM
- IC50 at 5 day [14]: > 10 µM
- IC50 at 5 day [15]: > 10 µM
- IC50 at 5 day [16]: > 10 µM
- IC50 at 5 day [17]: > 10 µM
- IC50 at 5 day [18]: > 10 µM
- IC50 at 5 day [19]: > 10 µM
- IC50 at 5 day [20]: > 10 µM
- IC50 at 5 day [21]: > 10 µM
- IC50 at 5 day [22]: > 10 µM
- IC50 at 5 day [23]: > 10 µM
- IC50 at 5 day [24]: > 10 µM
- IC50 at 5 day [25]: > 10 µM
- IC50 at 5 day [26]: > 10 µM
